Laboratory results as given in PMC11173533, “Baicalin and Baicalein Enhance Cytotoxicity, Proapoptotic Activity, and Genotoxicity of Doxorubicin and Docetaxel in MCF-7 Breast Cancer Cells” (Molecules, 2024).
Values joined by “and” are separate entries in the source; they are usually repeats but may differ in a detail not shown here. Equal values may be shown once.

Assays:
Format in all cases: cell-based, human
[1] = system: HUVEC-ST cells; assay: Annexin V FITC/propidium iodide double staining in HUVEC-ST cells
Procedure: (§1) Unless otherwise indicated, in experiments, cells were seeded at an appropriate density for the specific assay into 96-well plates or Petri dishes. They were then incubated in standard culture conditions, which included a temperature of 37 °C, 100% relative humidity, and a 5% CO2 incubator. […] After treatment, the cells were washed with PBS and, depending on the experiment, immediately used for measurement or cultured in a fresh medium for 24 or 48 h. Control cells were treated with a corresponding volume of PBS. Additional controls for solvents were also performed.
(§2) This assay is based on the principle that, in viable cells, phosphatidylserine (PS) is located in the inner membrane (side facing the cytoplasm). However, upon induction of apoptosis, PS is translocated to the outer membrane (PS also appears on the necrotic cell surface). The exposed phosphatidylserine can be detected by protein Annexin V stained with FITC dye. The addition of propidium iodide (PI) enabled necrotic cells to be distinguished. Thus, this method is convenient for counting and differentiating live cells from those undergoing apoptosis or necrosis.
(§3) The analysis was performed according to the manufacturer’s protocol on cells immediately after the treatment and 24 or 48 h postincubation. Samples were analyzed using the flow cytometer LSR® II from Becton Dickinson (San Jose, CA, USA) using an argon laser with a wavelength of λ = 488 nm.

[2] = system: MCF-7 cells; assay: Cytometric measurement of doxorubicin accumulation in MCF-7 cells; conditions: 22 h preincubation with flavonoid IC50, after 20 min of drug
Procedure: The aromatic rings in the hydrophobic part of doxorubicin give the drug molecule fluorescent properties (λex = 490 nm, λem = 590 nm). Thus, the flow cytometric measurement of drug fluorescence inside the cells allows for the monitoring of its transport rate through the cell membrane. The increase in the intensity of drug fluorescence inside the cells is highly correlated with its accumulation.
The DOX was added to the cell suspension to achieve a final concentration equal to the IC50 value. During one hour of incubation (temp 37 °C) with the drug, samples for cytometric measurement were taken from the cell suspension after the first 5 min and then after every 10 min. Samples were analyzed using the flow cytometer LSR® II from Becton Dickinson (San Jose, CA, USA) using an argon laser with a wavelength of λ = 488 nm. Doxorubicin fluorescence intensity was calculated per single cell.

[3] = system: HUVEC-ST cells; assay: MTT cell viability assay on HUVEC-ST cells; conditions: for Inhibitory concentration IC10 (reduces cell viability by 10%) / IC50: HUVEC-ST cell line, 24 h incubation, MTT; for Concentrations that significantly decreased cell viability: HUVEC-ST, 24 h incubation with flavonoid, p < 0.05 vs control; for IC50: Homo sapiens, read-out: Inhibitory concentration IC50 (reduces cell viability by 50%)
Procedure: as §1
(§4) The principle of the method is a measurement of the absorbance of formazan, a product of the reduction of the water-soluble tetrazolium salt (MTT) by NADPH-dependent cellular oxidoreductases (mainly succinate dehydrogenase) in living cells. Formazan is insoluble in water and precipitates as purple crystals. The amount of formazan is proportional to the number of living and metabolically active cells.
(§5) After treatment, the cells were washed with PBS and cultured in a fresh medium for 48 h. Subsequently, the medium was aspirated, and an aliquot of 50 µL of 0.05 mg/mL MTT solution was added to each microplate well for 3 h. The formazan crystals were dissolved in dimethyl sulfoxide (DMSO), and the absorbance was measured at a wavelength of λ = 580 nm. The percentage of viable cells was calculated by comparing the absorbance value of the test samples to the absorbance value of the control, taking the absorbance of the control as 100%.

[4] = system: HUVEC-ST cells; assay: Alkaline comet assay in HUVEC-ST cells; conditions: doxorubicin IC50 + flavonoid IC50 preincubation, longest postincubation time (48 h)
Procedure: as §1
The comet assay, also known as the single-cell gel electrophoresis assay, is a highly sensitive and versatile method for measuring single- and double-stranded DNA breaks. The assay uses an electric field to move negatively charged DNA fragments through an agarose gel. The amount of migration reflects the level of DNA damage in the cells.
The analysis was performed under alkaline conditions, according to the method of Singh et al., on cells immediately after the treatment and 24 or 48 h postincubation. A suspension of cells was mixed with low-melting-point agarose (LMP type XI) and spread onto a microscope glass slide previously coated with standard melting point agarose (NMP type I). After 2 h of cells lysis in a buffer containing (2.5 mol/L NaCl, 100 mmol/L Na2-EDTA, 10 mmol/L TRIS, 1% Triton X-100), DNA unwinding and electrophoresis were carried out in a buffer containing (1 mmol/L Na2-EDTA, 300 mmol/L NaOH) and (29 V, 30 mA). Before analysis, the slides were stained with DAPI solution (2 μg/mL). One hundred randomly chosen cells were analyzed on each slide using a fluorescence microscope Zeiss Axio Scope A1 (Carl Zeiss, Oberkochen, Germany) with a video camera connected to the image-analysis system Lucia-Comet v. 7.60 (Laboratory Imaging, Praha, Czech Republic).

[5] = system: MCF-7 cells; assay: Annexin V FITC/propidium iodide double staining in MCF-7 cells; conditions: for Viable cells: docetaxel IC50 + high concentration of flavonoid
Procedure: as §1, §2, §3

[6] = system: MCF-7 cells; assay: MTT cell viability assay on MCF-7 cells; conditions: for IC50: Homo sapiens, MCF7, read-out: Inhibitory concentration IC50 (reduces cell viability by 50%); for IC50 / Inhibitory concentration IC10 (reduces cell viability by 10%): MCF-7 cell line, 24 h incubation, MTT; for Concentrations giving statistically significant reduction in the number of living cells: MCF-7, 24 h incubation with flavonoid, p < 0.05 vs control; for Viable cells: MCF-7, doxorubicin 3 µmol/L after 22 h preincubation with flavonoid IC50
Procedure: as §1, §4, §5

[7] = system: HUVEC-ST cells; assay: Flavonoid-drug combination index (MTT, CompuSyn) in HUVEC-ST cells
Procedure: The experiment with a non-constant combination of BLIN and BLEIN with DOX or DTX was carried out to determine the synergistic, additive, or antagonistic effect between investigated flavonoids and anticancer drugs. […] Subsequently, cell viability was determined by MTT assay. […] The results were presented as a combination index (CI).

[8] = system: HUVEC-ST cells; assay: Mitochondrial membrane potential (JC-1) in HUVEC-ST cells
Procedure: as §1
The mitochondrial membrane potential was measured with the membrane-permeant JC-1 fluorescent probe. […] Thus, the measurement of the ratio of JC-1 dimer to monomer fluorescence can be used for estimating changes in mitochondrial membrane potential (ΔΨm).
The cells were then incubated in complete darkness for 30 min at 37 °C. After incubation, the cells were washed to remove the dye and suspended in fresh HBSS solution. Finally, the fluorescence intensity was measured using a Cary Eclipse spectrofluorometer (Varian, Inc.) at λex/em = 475 nm/530 nm for monomers and at λex/em = 535 nm/590 nm for dimers. Subsequently, the ratio of the fluorescence intensities at 530 nm/590 nm was calculated. The mitochondrial potential in both cell lines was measured immediately after incubation with investigated compounds. The results are expressed as a percentage of the control, considered 100%.

[9] = flavonoid alone (high concentration), 48 h after incubation
[10] = doxorubicin IC50 + flavonoid IC50 preincubation, 48 h post-incubation
[11] = flavonoid IC50 alone 24 h, 24 h after incubation
[12] = flavonoid IC50 alone 24 h, 48 h after incubation
[13] = flavonoid IC10 22 h preincubation + DOX IC50 2 h
[14] = flavonoid IC10 22 h preincubation + DTX IC50 2 h
[15] = flavonoid IC50 22 h preincubation + DOX IC50 2 h
[16] = flavonoid IC50 22 h preincubation + DTX IC50 2 h
[17] = flavonoid IC50 alone 24 h, control = 100%

| SMILES | AV+/PI− cells [1, 9] [%] | Amount of doxorubicin in cells relative to cells not treated with flavonoids [2] | Inhibitory concentration IC10 (reduces cell viability by 10%) [3] [µM] | Concentrations that significantly decreased cell viability [3] [µmol/L] | IC50 [3] [µM] | DNA in the comet tail [4] [%] | AV+/PI− cells (undergoing apoptosis) [5, 10] [%] | AV+/PI− cells (undergoing apoptosis) [5, 11] [%] | AV+/PI+ cells [5, 12] [%] | IC50 [6] [µM] | Concentrations giving statistically significant reduction in the number of living cells [6] [µmol/L] | Viable cells [6] [%] | Inhibitory concentration IC10 (reduces cell viability by 10%) [6] [µM] | Combination index (CI) [7, 13] | Combination index (CI) [7, 14] | Combination index (CI) [7, 15] | Combination index (CI) [7, 16] | Mitochondrial membrane potential ΔΨm, % of control [8, 17] [%] | also measured |
| --- | --- | --- | --- | --- | --- | --- | --- | --- | --- | --- | --- | --- | --- | --- | --- | --- | --- | --- | --- |
| O=c1cc(-c2ccccc2)oc2cc(O)c(O)c(O)c12 [baicalein, 5,6,7-Trihydroxyflavone] | 10 | over two times higher | 75 ± 1.8 | ≥ 56 | 115 ± 2.6 | 5 | 21 | ~20 | 28 | 95 ± 4.8 | ≥ 10 | 10 | 9 ± 0.7 | 0.8721 | 0.9611 | 0.6801 | 0.4428 | 59 | AV+/PI+ cells ([1]; docetaxel IC50 + flavonoid IC50, 24 h after incubation): 44%; Change in percentage of AV+/PI− or AV+/PI+ cells vs doxorubicin alone ([1]; doxorubicin IC50 + flavonoid IC50, 24 h after incubation): increased almost two-fold; Mitochondrial membrane potential ΔΨm, % of control ([8]; doxorubicin IC50 after 22 h preincubation with flavonoid IC50): 33%; Mitochondrial membrane potential ΔΨm ([8]; doxorubicin IC50 after preincubation with flavonoid in low concentration (IC10)): increasing ΔΨm to the level of control |
| O=C(O)[C@H]1O[C@@H](Oc2cc3oc(-c4ccccc4)cc(=O)c3c(O)c2O)[C@H](O)[C@@H](O)[C@@H]1O [baicalin, baicalein 7-O-β-D-glucuronide] | 19 | over two times higher | 101 ± 10.7 | ≥ 112 | 167 ± 6.7 | 3 | 34 | ~20 | 25 | 250 ± 10.5 | ≥ 56 | 21 | 36 ± 3.4 | 2.915 | 0.9948 | 1.794 | 3.1 and 3.137 | 72 | Viable cells ([1]; doxorubicin IC50 + lower concentration (IC10) of flavonoid, longest postincubation time (48 h)): 55%; AV+/PI+ cells [1, 9]: 30%; Viable cells ([5]; 24 h after incubation): 22%; Viable cells ([5]; 48 h after incubation): 24% |
